Where two headings read alike, the source gives them in different places.
Tests used:
[1] = target: Escherichia Coli TS ("ETS") (Escherichia coli, UniProt P0A884); test: Thymidylate synthase inhibition constant Ki, Escherichia Coli TS; assay type: biochemical
Experimental: (§1) Thymidylate synthase inhibition constants Ki were determined by the following method. All assays were run at 25° C. and initiated by the addition of three different types of thymidylate synthase ("TS"): (1) Escherichia Coli TS ("ETS"); (2) Candida TS ("CTS"), a fungus; and (3) human TS ("HTS").
(§2) All reaction mixtures contained 50 mM Tris at pH 7.8 (the final pH of the reaction was; 7.6), 10 mM DTT (dithiothreitol), 1 mM EDTA (ethylenediaminetetraacetic acid), 25 mM MgCl2, 15 mM H2 CO (formaldehyde) and 25 microM dUMP. When human TS was assayed, 100 micrograms/ml of BSA (bovine serum albumin) was present in the reactions. The range of THF (Tetrahydrofolate) was 5 to 150 microM (eight concentrations: 5, 6.6, 10, 13, 16, 25, 50 and 150 microM). A standard curve in the absence of inhibitor was run with each experiment. […] Charcoal was used to remove unreacted dUMP from the tritium release reaction mixtures, and the resultant water was counted to determine the extent of reaction.

[2] = target: human TS ("HTS") (Homo sapiens, UniProt P04818); test: biochemical
Sequence of human TS ("HTS") (P04818 whole entry): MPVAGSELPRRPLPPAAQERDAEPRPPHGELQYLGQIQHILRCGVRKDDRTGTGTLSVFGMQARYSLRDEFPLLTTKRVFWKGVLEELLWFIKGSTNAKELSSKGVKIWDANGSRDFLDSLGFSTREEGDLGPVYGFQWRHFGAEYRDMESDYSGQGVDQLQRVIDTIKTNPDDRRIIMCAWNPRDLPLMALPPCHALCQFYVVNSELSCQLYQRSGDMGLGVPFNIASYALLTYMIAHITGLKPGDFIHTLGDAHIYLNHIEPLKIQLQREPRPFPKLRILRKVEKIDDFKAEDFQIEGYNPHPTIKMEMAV
Experimental: as §1
as §2, with “The range of THF (Tetrahydrofolate) was 5 to 150 microM (eight concentrations: 5, 6.6, 10, 13, 16, 25, 50 and 150 microM).” left out

[3] = target: Candida TS ("CTS") (Candida albicans, UniProt P12461); test: Thymidylate synthase inhibition constant Ki, Candida TS; assay type: biochemical
Sequence of Candida TS ("CTS") (P12461 whole entry): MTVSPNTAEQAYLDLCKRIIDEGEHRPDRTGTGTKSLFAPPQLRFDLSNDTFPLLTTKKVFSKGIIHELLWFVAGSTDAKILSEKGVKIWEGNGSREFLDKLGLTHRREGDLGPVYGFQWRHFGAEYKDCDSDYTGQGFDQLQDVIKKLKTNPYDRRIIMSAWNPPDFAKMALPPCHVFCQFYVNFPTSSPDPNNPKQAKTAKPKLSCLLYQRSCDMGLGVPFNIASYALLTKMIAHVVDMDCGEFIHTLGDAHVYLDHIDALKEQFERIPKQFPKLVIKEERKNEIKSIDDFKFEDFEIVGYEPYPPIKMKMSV
Experimental: as §1, §2

[4] = tested on: L1210 murine leukemia (ATCC CCL 219); test: cells; assay type: cell-based; conditions: Mus musculus, L1210, 72 h, read-out: IC50 L1210
[5] = tested on: thymidine kinase deficient human adenocarcinoma line (GC3 /M TK^-); test: cells; assay type: cell-based; conditions: GC3/MTK-, 120 h, read-out: IC50 GC3-M
[6] = tested on: CCRF-CEM, a human lymphoblastic leukemia line of T-cell origin (ATCC CCL 119); test: cells; assay type: cell-based; conditions: 120 h, read-out: IC50 (CRFCEM)

Sequence of Escherichia Coli TS ("ETS") (P0A884 whole entry): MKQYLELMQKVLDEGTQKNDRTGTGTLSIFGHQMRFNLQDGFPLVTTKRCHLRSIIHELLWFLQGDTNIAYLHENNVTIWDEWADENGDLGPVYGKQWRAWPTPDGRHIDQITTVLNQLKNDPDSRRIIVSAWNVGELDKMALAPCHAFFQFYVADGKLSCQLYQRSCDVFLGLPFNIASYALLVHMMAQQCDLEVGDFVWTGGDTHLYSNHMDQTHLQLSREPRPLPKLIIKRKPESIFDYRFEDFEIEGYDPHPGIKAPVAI

| SMILES | Ki [1] | Ki [2] | Ki [3] | IC50 [4] | IC50 [5] | IC50 [6] | Ki ([1]; read-out: Ki ETS, 25° C., against 5,10-methylene-tetrahydrofolate, 25 microM dUMP) | Ki ([3]; read-out: Ki CTS, 25° C., against 5,10-methylene-tetrahydrofolate, 25 microM dUMP) |
| --- | --- | --- | --- | --- | --- | --- | --- | --- |
| CCN(Cc1ccc(S(=O)(=O)c2ccccc2)cc1)c1ccc2c3c(cccc13)CN2 [Compound 41, N-[4-(phenylsulfonyl)benzyl]-N-ethyl-6-amino-dihydrobenz[cd]indole] | > 5 µM | 12 ± 3 µM | > 10 µM |  |  |  |  |  |
| O=C1Nc2ccc(N(CCO)Cc3ccc(S(=O)(=O)N4CCNCC4)cc3)c3cccc1c23 [Compound 16, N-[4-(N,N-Piperazinylsulfamoyl)benzyl]-N-hydroxyethyl-6-aminobenz[cd]indol-2(1H)-one] | 14 ± 7 µM | 0.87 ± 0.19 µM | 11 ± 7 µM | 50 µM | > 50 µM | 31 µM |  |  |
| CCN(Cc1ccc(S(=O)(=O)c2ccccc2)cc1)c1ccc2c3c(cccc13)C(=O)N2 [Compound 8, N-[4-(phenylsulfonyl)benzyl]-N-ethyl-6-aminobenz[cd]indol-2(1H)-one] | > 1 µM | 1.2 ± 0.4 µM | > 1 µM | 3.05 µM | > 3.33 µM | > 3.33 µM |  |  |
| CCCN(Cc1ccc(S(=O)(=O)N2CCNCC2)cc1)c1ccc2c3c(cccc13)C(=O)N2 [Compound 19, N-[4-(N,N-Piperazinylsulfamoyl)benzyl]-N-propyl-6-aminobenz[cd]indol-2(1H)-one] | > 20 µM | 12 ± 4 µM | > 10 µM | 2.9 µM | 5.4 µM | 3.1 µM |  |  |
| CN(Cc1ccc(S(=O)(=O)c2ccccc2)cc1)c1ccc2c3c(cccc13)C(=O)N2 [Compound 29] |  |  |  |  | > 5 µM |  |  |  |
| O=C1Nc2ccc(N(CCCO)Cc3ccc(S(=O)(=O)N4CCNCC4)cc3)c3cccc1c23 [Compound 40, N-[4-(N,N-Piperazinylsulfamoyl)benzyl]-N-hydroxypropyl-6-aminobenz[cd]indol-2-(1H)-one] | > 10 µM | 11 ± 5 µM | > 10 µM | 21.5 µM | 30 µM | 15 µM |  |  |
| CN(Cc1ccc2cc(CO)ccc2c1)c1ccc2c3c(cccc13)C(=O)N2 [Compound 47, N-(6-Hydroxymethyl-2-naphthobenzyl)-N-methyl-6-aminobenz[cd]indol-2(1H)-one] | > 10 µM | 20 ± 10 µM | > 10 µM | 1.7 µM | > 4 µM | > 4 µM |  |  |
| CCN(Cc1ccc(S(=O)(=O)c2ccccc2)cc1)c1ccc2c3c(cccc13)C(N)=N2 [Compound 34] | 10 ± 6 µM | 0.075 ± 0.037 µM | 0.38 ± 0.11 µM | 0.7 µM | 3 µM | 1.25 µM |  |  |
| CCN(Cc1ccc(S(=O)(=O)N2CCNCC2)cc1)c1ccc2c3c(cccc13)C(=S)N2 [Compound 6, N-^6 -Ethyl-N^6 [(4-N,N-piperazinyl)sulfamoyl]benzyl-6-aminobenz[cd]indol-2(1H)-thione] | 50 ± 9 µM | 3.4 ± 0.4 µM | 23 ± 15 µM | 2.1 µM | > 5 µM | 3.5 µM |  |  |
| CSCN(Cc1ccc(S(=O)(=O)c2ccccc2)cc1)c1ccc2c3c(cccc13)C(=O)N2 [Compound 24, N-[4-(Phenylsulfonyl)benzyl]-N-methylthiomethyl-6-aminobenz[cd]indol-2(1H)-one] | > 1 µM | 3.9 ± 1.7 µM | > 1 µM | 2.1 µM | > 10 µM | 2.8 µM |  |  |
| CC(C)N(Cc1ccc(S(=O)(=O)N2CCNCC2)cc1)c1ccc2c3c(cccc13)C(=O)N2 [Compound 22, N-[4-(N,N-piperazinylsulfamoyl)benzyl]-N-isopropyl-6-aminobenz[cd]indol-2(1H)-one] | 23 ± 7 µM | 4.9 ± 0.7 µM | 43 ± 9 µM | 3.9 µM | 5.9 µM | 6.8 µM |  |  |
| CN(Cc1ccc(CO)c2ccccc12)c1ccc2c3c(cccc13)C(=O)N2 [Compound 31, N-[4-Hydroxymethyl-1-naphthobenzyl]-N-methyl-6-aminobenz[cd]indol-2(1H)-one] |  | 10 ± 1 µM |  | 0.8 µM | 4 µM | 3 µM | > 2 µM | > 2 µM |

Source: patent US5574039A, “Antiproliferative compounds having nitrogen-containing tricyclic ring systems and phenyl substituents” (Agouron Pharmaceuticals, Inc., priority 1994, dated 1996)
